{
  "source": "patent US6787359B1",
  "about": "“Gene transfer methods” (Takara Shuzo Co., Ltd., priority 1998, dated 2004)",
  "key": {"[1]": {"test_system": "NIH/3T3 cells", "test": "Titer of virus supernatant of producer cells cultured with sodium butyrate", "assay_type": "cell-based", "conditions": "φCRIP/pLEIN producer cells cultured 24 hours with 5 mM sodium butyrate; without: 3.3×10^4 cfu/ml", "description": "The titer of the virus supernatant was measured according to a standard method [J. Virol., 62:1120-1124 (1988)] in which the efficiency of transferring a neomycin phosphotransferase gene into NIH/3T3 cells (ATCC CRL-1658) is used as an index. The number of infectious particles contained in 1 ml of the supernatant (cfu/ml) was calculated. The amount of the virus supernatant to be added in the experiments hereinbelow was determined based on the calculated value, i.e., the titer of the supernatant.\n(§1) Recombinant retrovirus-producer cells obtained by introducing a retrovirus vector plasmid pLEIN into φCRIP cells were cultured in DMEM containing 10% CS. When the cells grew to semi-confluence in a 10-cm plate, the medium was changed to 7 ml of RPMI 1640 containing 10% FCS or 7 ml of RPMI 1640 containing 5 mM sodium butyrate (Nacalai Tesque) and 10% FCS. After the cells were cultured for 24 hours, supernatants were filtered through 0.45 μm filters to obtain virus supernatants. The titer of the virus supernatant was determined as described in Example 2. The titer of the virus supernatant without sodium butyrate was 3.3×10^4 cfu/ml, whereas the titer of the virus supernatant containing 5 mM sodium butyrate was 2×10^6 cfu/ml."}, "[2]": {"test_system": "HL-60 cells", "assay_type": "cell-based, human", "conditions": "no washing", "description": "as §1\nHL-60 cells were used as target cells. 0.5 ml of the above-mentioned virus supernatant was added to each well of a plate coated with CH-296 as described in Example 12. The plate was incubated at 37° C. for 3 hours for contacting and binding the virus particles with CH-296. After incubation, the plate was […]. 0.5 ml of RPMI 1640 medium supplemented with 10% FCS containing 5×10^4 HL-60 cells was added to the well. As a control, 5×10^4 HL-60 cells were suspended in 0.5 ml of the above-mentioned virus supernatant and then immediately added to the plate coated with CH-296. These plates were incubated at 37° C. overnight to allow the virus to infect cells. After the incubation, 1 ml of RPMI 1640 medium containing 10% FCS was added to the well. The plate was incubated for additional 48 hours. The cell number was then counted."}, "[3]": {"test_system": "L1210 cells", "test": "Eco-EGFP gene transfer on plates with covalently immobilized CH-271 and (Mannose)9-(GlucNAc)2-Asn", "assay_type": "cell-based, mouse", "conditions": "wells with sugar chain and CH-271 immobilized", "description": "A microplate to which CH-271 and (Mannose)9-(GlucNAc)2-Asn were immobilized through covalent bonds was prepared. […] 50 μl each of solutions containing 2% BSA or 80 μg/ml of CH-271 as well as (Mannose)9-(GlucNAc)2-Asn at a varying concentration was added to each well of the activated 96-well Carboplate. The plate was subjected to immobilization reaction at 37° C. for 2 hours. The plate was blocked using 0.2% glycine solution at 4° C. for 15 hours and then used for the following gene transfer experiments.\n10^3 L1210 cells and 0.1 ml Eco-EGFP virus supernatant (10^6 cfu/ml) were added to the well of the microplate. After the plate was incubated for 48 hours, 0.1 ml of fresh RPMI 1640 medium containing FCS, penicillin and streptomycin was added to the well. The plate was incubated for additional 24 hours. The cells were collected and washed. The gene transfer efficiency was calculated as described in Example 4."}, "[4]": {"test_system": "mouse leukemia L1210 cells", "test": "Gene transfer with PM5neo virus on coated plates, G418-resistant cells by WST-1 absorbance", "assay_type": "cell-based", "conditions": "for Absorbance difference (450 nm-650 nm), G418-resistant cells: Experiment 2", "description": "50 μl of […] solution of H-271, H-296, C-274, CH-271, CH-296, ColV, human basic fibroblast growth factor (bFGF; Progen), tenascin (Gibco) or epidermal growth factor (EGF; Takara Shuzo), or 50 μl of 2% bovine serum albumin (BSA, Sigma) was added to each well of a 96-well non-treated microplate for cell culture (Falcon). The plate was allowed to stand at 4° C. overnight and then washed twice with phosphate buffered saline (PBS; Roman Kogyo). Alternatively, after the plate was treated as described above, 0.1 ml of 4 mg/ml solution of 1-ethyl-3-dimethylaminopropylcarbodiimide hydrochloride (Sigma) in sterile pure water was dispensed to each well. The reaction was allowed to proceed at 37° C. for 2 hours. The plate was washed extensively with pure water to prepare a carbodiimide-treated plate. These plates were stored at 4° C. until viral infection experiments were conducted.\n10^4 mouse leukemia L1210 cells (ATCC CCL-219), which had been grown in RPMI 1640 medium (Bio Whittaker) supplemented with 10% FCS, 50 units/ml penicillin and 50 μg/ml streptomycin, and 50 μl of PM5neo virus supernatant (10^4 cfu/ml) were added to the well of the microplate. After the plate was incubated for 24 hours, the medium was changed to the same medium containing G418 (Gibco) at a final concentration of 0.75 mg/ml, and the plate was then incubated for additional 48 hours. G418-resistance cells were assessed according to the method as described in S. Kim et al. [Gene Therapy, 3:1018-1020 (1996)] with a partial modification in which color developed using Premix WST-1 reagent (Takara Shuzo) was measured as absorbance at 450 nm. […] Absorbance at 450 nm and 650 nm was then measured using a microplate reader, and the difference (450 nm-650 nm) was calculated. The value obtained using a plate coated with 2% BSA without carbodiimide treatment was defined as background."}, "[5]": {"test_system": "L1210 cells", "test": "Eco-EGFP gene transfer with laminin and virus-binding substance, flow cytometry", "assay_type": "cell-based, mouse", "conditions": "no CH-296/CH-271", "description": "Mouse laminin (Gibco) or human laminin (Takara Shuzo) was used in combination with a functional substance having an activity of binding to a virus to carry out gene transfer experiment. A 24-well non-treated microplate for cell culture (Falcon) used in the experiment was coated with these functional substances according to the following two methods.\nThe cocktail method: A mixture of two functional substances is added to the plate. The plate is allowed to stand at 4° C. overnight. The plate is blocked with 2% BSA at 37° C. for 20 minutes and then washed with PBS.\nThe pre-coating method: A solution of a functional substance having an activity of binding to a virus is added to the plate. The plate is allowed to stand at 4° C. overnight. The solution is removed. A laminin solution is added to the plate. The plate is incubated at 37° C. for 2 hours, blocked with 2% BSA, and then washed with PBS.\n0.5 ml of the solution of the functional substance was used to coat each well. 10^5 L1210 cells and 0.5 ml of Eco-EGFP virus supernatant (10^5 cfu/ml) were added to the well. The plate was incubated for 24 hours. After incubation, the cells were collected by using a cell detachment buffer (Bio Whittaker) and washed. EGFP-expressing cells were analyzed by flow cytometry using FACSVantage (Becton Dickinson) at an excitation wavelength of 488 nm and an emission wavelength of 515-545 nm. The gene transfer efficiency (the ratio of EGFP-expressing cells to total cells) was calculated."}, "[6]": {"test_system": "mouse leukemia L1210 cells", "test": "Effect of sugar chain-cleaving enzymes on CH-271/laminin plates, PM5neo gene transfer, G418-resistant cells", "assay_type": "cell-based", "description": "A 96-well microplate was coated using 50 μl/well of a mixture containing 5 μg/ml of mouse laminin and 80 μg/ml of CH-271 as described in Example 5. Effects of treatment of the plate with various enzymes having activities of cleaving sugar chains on gene transfer efficiency were examined.\nPlates were treated with enzymes as follows: Enzyme solutions containing 500 mU/ml O-glycanase (endo-α-N-acetylgalactosaminidase, Seikagaku Corp.), 500 mU/ml endoglycosidase H (endo-β-N-acetylglucosaminidase H, Seikagaku Corp.), 250 mU/ml endo-β-galactosidase (Seikagaku Corp.) and 2 mU/ml α-mannosidase (Seikagaku Corp.) in 50 mM citrate-phosphate buffer (pH 5.0) were prepared. An enzyme solution containing 250 mU/ml glycopeptidase F (peptide: N-glycosidase F, Takara Shuzo) in 100 mM tris-hydrochloride buffer (pH 8.6) was prepared. 50 μl each of the enzyme solutions was dispensed in each well for reacting at 37° C. for 20 hours. The plate was then washed three times with PBS and then used for viral infection experiments. 10^4 mouse leukemia L1210 cells grown in RPMI 1640 medium supplemented with 10% FCS, 50 units/ml penicillin and […], and 50 μl of PM5neo virus supernatant (10^4 cfu/ml) were added to each well of the microplate. The plate was incubated for 24 hours. […] G418-resistance cells were assessed as described in Example 3."}, "[7]": {"conditions": "Control: cells suspended in supernatant with sodium butyrate, added to CH-296 plate"}, "[8]": {"conditions": "plate treated with carbodiimide"}},
  "data": [
    {"compound": "CCCC(=O)[O-].[Na+]", "note": "[sodium butyrate]", "values": [
      {"measurement": "Titer of the virus supernatant", "setting": "[1]", "result": "2×10^6 cfu/ml"},
      {"measurement": "Cell number (cells/plate)", "setting": "[2]; [7]", "result": "4.0 x 10^5 cells/plate"},
      {"measurement": "Gene transfer efficiency (%)", "setting": "[2]; [7]", "result": 35.46, "unit": "%"},
      {"measurement": "Viable cell number relative to supernatant without sodium butyrate", "setting": "[2]; control group", "result": "one fourth"}
    ]},
    {"compound": "(Mannose)9-(GlucNAc)2-Asn", "values": [
      {"measurement": "Gene transfer efficiency (in words)", "setting": "[3]", "result": "increased depending on the concentration of sugar chain used"}
    ]},
    {"compound": "Tenascin: tenascin (Gibco)", "values": [
      {"measurement": "Absorbance difference (450 nm-650 nm), G418-resistant cells", "setting": "[4]; [8]", "result": "0.323 ± 0.037"},
      {"measurement": "Absorbance difference (450 nm-650 nm), G418-resistant cells", "setting": "[4]; plate untreated", "result": "0.060 ± 0.021"},
      {"measurement": "Appearance of G418-resistant cells (in words)", "setting": "[4]; carbodiimide treatment carried out", "result": "increased"}
    ]},
    {"compound": "bFGF: human basic fibroblast growth factor (Progen)", "values": [
      {"measurement": "Absorbance difference (450 nm-650 nm), G418-resistant cells", "setting": "[4]; [8]", "result": "0.580 ± 0.046"},
      {"measurement": "Absorbance difference (450 nm-650 nm), G418-resistant cells", "setting": "[4]; plate untreated", "result": "0.425 ± 0.014"},
      {"measurement": "Gene transfer efficiency (in words)", "setting": "[4]; known virus-binding substances, Table 1", "result": "increase in gene transfer efficiency was observed"}
    ]},
    {"compound": "laminin", "values": [
      {"measurement": "Gene transfer efficiency", "setting": "[5]; laminin 5 μg/ml alone", "result": 4.09, "unit": "%"},
      {"measurement": "Gene transfer efficiency", "setting": "[5]; laminin 10 μg/ml alone", "result": 6.76, "unit": "%"},
      {"measurement": "Gene transfer efficiency", "setting": "[5]; laminin 20 μg/ml alone", "result": 6.89, "unit": "%"},
      {"measurement": "Gene transfer-promoting effect of laminin after enzyme treatment (in words)", "setting": "[6]; treatment of the plate with endoglycosidase H", "result": "completely abolished"},
      {"measurement": "Gene transfer efficiency after enzyme treatment (in words)", "setting": "[6]; treatment of the plate with α-mannosidase or glycopeptidase F", "result": "decreased the gene transfer efficiency in some degree"}
    ]}
  ]
}
